# Laboratory results as given in patent US11197878B2, “Anti-inflammatory composition including novel quercetin-based compound” (AMOREPACIFIC CORPORATION, priority 2017, dated 2021).
# Legend:
# IL-6 (Interleukin 6) = experiment: Test for inhibiting generation of IL-6 in H2O2-stimulated fibroblast (ELISA); assay type: cell-based
# Experimental: (§1) Fibroblast (PromoCell, Germany) was inoculated in a 6-well culturing plate at a concentration of 1×10^5 cells, and cultured in a 5% CO2 incubator at 37° C. for 24 hours. The well was treated with H2O2 500 μM and stimulated for 24 hours, and then were treated with quercetin3-O-[3-O″-(E)-p-coumaroyl][β-D-glucopyranosyl-(1→3)-O-α-L-rhamnopyranosyl-(1→6)-O-β-D-glucopyranoside] (‘New Material 31’) and quercetin3-O-[3-O″-(E)-p-coumaroyl][α-L-rhamnopyranosyl-(1→6)-O-β-D-glucopyranoside]) (‘New Material 32’) at a concentration of 100 μg/ml, respectively, and reacted for 48 hours. After the reaction was finished, the culture medium was collected and the ELISA analysis was performed. Herein, α-bisabolol, which is the material typically used as an anti-inflammatory agent and abirritant, was used as a control. As PGE2, a kit of Assay Design® was used, and as IL-6 and IL-8, a kit of Endogen® was used, and the test was carried out according to the methods prescribed in the manuals of the respective companies. (‘31’ refers to New Material 31, and ‘32’ refers to New Material 32) Inhibition effect={1−(test sample−control)/(H2O2−control)}×100 <Equation 1>
# IL-8 (Interleukin 8) = experiment: Test for inhibiting generation of IL-8 in H2O2-stimulated fibroblast (ELISA); assay type: cell-based
# Experimental: as §1
# skin = experiment: Test for skin accumulated stimulus, HRIPT (Human repeated insult patch tests); assay type: in vivo; settings: for Number of examinees who exhibited ±, +, or ++ reactivity, 1st: 1st patch; for Number of examinees who exhibited ±, +, or ++ reactivity, 2nd: 2nd patch; for Number of examinees who exhibited ±, +, or ++ reactivity, 3rd: 3rd patch; for Number of examinees who exhibited ±, +, or ++ reactivity, 4th: 4th patch; for Number of examinees who exhibited ±, +, or ++ reactivity, 5th: 5th patch; for Number of examinees who exhibited ±, +, or ++ reactivity, 6th: 6th patch; for Number of examinees who exhibited ±, +, or ++ reactivity, 7th: 7th patch; for Number of examinees who exhibited ±, +, or ++ reactivity, 8th: 8th patch; for Number of examinees who exhibited ±, +, or ++ reactivity, 9th: 9th patch
# Experimental: HRIPT (Human repeated insult patch tests) was conducted in order to identify skin accumulated stimulus of quercetin3-O-[3-O″-(E)-p-coumaroyl][β-D-glucopyranosyl-(1→3)-O-α-L-rhamnopyranosyl-(1→6)-O-β-D-glucopyranoside] and quercetin3-O-[3-O″-(E)-p-coumaroyl][α-L-rhamnopyranosyl-(1→6)-O-β-D-glucopyranoside] and to calculate the concentration range that can be used in skin. Specifically, 15 healthy adult examinees were randomly selected, and test compositions in which the compounds were respectively comprised in an amount of 0.5 wt. %, 1 wt. %, and 3 wt. % (the compositions for skin, comprising an emulsifying agent, a stabilizer, purified water, etc. in addition to the compounds) were dropped in the amount of 20 μl per chamber (IQ chamber, Epitest Ltd, Finland), and patched on the right site of the upper back of the examinees, and then, after 24 hours, the patch was replaced with a new patch. A total of 9 patches were conducted, three times a week for total 3 weeks, in such manner, the skin reactions before and after patch were examined every time, and the skin reactions until 48 hours after removing the final patch were observed, and the average reactivity was observed. The skin reaction was determined according to the criteria of International Contact Dermatitis Research Group (ICDRG). In the above table, “New Material 31” refers to quercetin3-O-[3-O″-(E)-p-coumaroyl][β-D-glucopyranosyl-(1→3)-O-α-L-rhamnopyranosyl-(1→6)-O-β-D-glucopyranoside], and “New Material 32” refers to quercetin3-O-[3-O″-(E)-p-coumaroyl][α-L-rhamnopyranosyl-(1→6)-O-β-D-glucopyranoside].
# [1] = fibroblast culture medium, H2O2 500 μM 24 hours, then test material (31, 32: 100 μg/ml) 48 hours, ELISA
compound,measurement,setting,value
"C[C@@H]1O[C@@H](OC[C@H]2O[C@@H](Oc3c(-c4ccc(O)c(O)c4)oc4cc(O)cc(O)c4c3=O)[C@H](O)[C@@H](OC(=O)/C=C/c3ccc(O)cc3)[C@@H]2O)[C@H](O)[C@H](O[C@@H]2O[C@H](CO)[C@@H](O)[C@H](O)[C@H]2O)[C@H]1O [New Material 31, quercetin3-O-[3-O″-(E)-p-coumaroyl][β-D-glucopyranosyl-(1→3)-O-α-L-rhamnopyranosyl-(1→6)-O-β-D-glucopyranoside]]",inhibition at 100 µg/mL,"IL-6 (Interleukin 6); Fibroblast, 100 μg/ml, {1−(test sample−control)/(H2O2−control)}×100, read-out: Inhibition effect according to Equation 1, IL-6",29.2%
same,IL-6,IL-6 (Interleukin 6); [1],226 pg/mL
same,inhibition at 100 µg/mL,"IL-8 (Interleukin 8); Fibroblast, 100 μg/ml, {1−(test sample−control)/(H2O2−control)}×100, read-out: Inhibition effect according to Equation 1, IL-8",61.1%
same,IL-8,IL-8 (Interleukin 8); [1],235 pg/mL
same,"Number of examinees who exhibited ±, +, or ++ reactivity, 1st","skin; 0.5 wt. %, line 1 of 3 (±)",0 number
same,"Number of examinees who exhibited ±, +, or ++ reactivity, 1st","skin; 0.5 wt. %, line 2 of 3 (+)",0 number
same,"Number of examinees who exhibited ±, +, or ++ reactivity, 1st","skin; 0.5 wt. %, line 3 of 3 (++)",0 number
same,"Number of examinees who exhibited ±, +, or ++ reactivity, 2nd","skin; 0.5 wt. %, line 1 of 3 (±)",0 number
same,"Number of examinees who exhibited ±, +, or ++ reactivity, 2nd","skin; 0.5 wt. %, line 2 of 3 (+)",0 number
same,"Number of examinees who exhibited ±, +, or ++ reactivity, 2nd","skin; 0.5 wt. %, line 3 of 3 (++)",0 number
same,"Number of examinees who exhibited ±, +, or ++ reactivity, 3rd","skin; 0.5 wt. %, line 1 of 3 (±)",0 number
same,"Number of examinees who exhibited ±, +, or ++ reactivity, 3rd","skin; 0.5 wt. %, line 2 of 3 (+)",0 number
same,"Number of examinees who exhibited ±, +, or ++ reactivity, 3rd","skin; 0.5 wt. %, line 3 of 3 (++)",0 number
same,"Number of examinees who exhibited ±, +, or ++ reactivity, 4th","skin; 0.5 wt. %, line 1 of 3 (±)",0 number
same,"Number of examinees who exhibited ±, +, or ++ reactivity, 4th","skin; 0.5 wt. %, line 2 of 3 (+)",0 number
same,"Number of examinees who exhibited ±, +, or ++ reactivity, 4th","skin; 0.5 wt. %, line 3 of 3 (++)",0 number
same,"Number of examinees who exhibited ±, +, or ++ reactivity, 5th","skin; 0.5 wt. %, line 1 of 3 (±)",0 number
same,"Number of examinees who exhibited ±, +, or ++ reactivity, 5th","skin; 0.5 wt. %, line 2 of 3 (+)",0 number
same,"Number of examinees who exhibited ±, +, or ++ reactivity, 5th","skin; 0.5 wt. %, line 3 of 3 (++)",0 number
same,"Number of examinees who exhibited ±, +, or ++ reactivity, 6th","skin; 0.5 wt. %, line 1 of 3 (±)",0 number
same,"Number of examinees who exhibited ±, +, or ++ reactivity, 6th","skin; 0.5 wt. %, line 2 of 3 (+)",0 number
same,"Number of examinees who exhibited ±, +, or ++ reactivity, 6th","skin; 0.5 wt. %, line 3 of 3 (++)",0 number
same,"Number of examinees who exhibited ±, +, or ++ reactivity, 7th","skin; 0.5 wt. %, line 1 of 3 (±)",0 number
same,"Number of examinees who exhibited ±, +, or ++ reactivity, 7th","skin; 0.5 wt. %, line 2 of 3 (+)",0 number
same,"Number of examinees who exhibited ±, +, or ++ reactivity, 7th","skin; 0.5 wt. %, line 3 of 3 (++)",0 number
same,"Number of examinees who exhibited ±, +, or ++ reactivity, 8th","skin; 0.5 wt. %, line 1 of 3 (±)",0 number
same,"Number of examinees who exhibited ±, +, or ++ reactivity, 8th","skin; 0.5 wt. %, line 2 of 3 (+)",0 number
same,"Number of examinees who exhibited ±, +, or ++ reactivity, 8th","skin; 0.5 wt. %, line 3 of 3 (++)",0 number
same,average reactivity,"skin; 0.5 wt. %, 9 patches over 3 weeks, 15 examinees, less than 3 is considered a stable composition",0
same,"Number of examinees who exhibited ±, +, or ++ reactivity, 9th","skin; 0.5 wt. %, line 1 of 3 (±)",0 number
same,"Number of examinees who exhibited ±, +, or ++ reactivity, 9th","skin; 0.5 wt. %, line 2 of 3 (+)",0 number
same,"Number of examinees who exhibited ±, +, or ++ reactivity, 9th","skin; 0.5 wt. %, line 3 of 3 (++)",0 number
same,"Number of examinees who exhibited ±, +, or ++ reactivity, 1st","skin; 1 wt. %, line 1 of 3 (±)",0 number
same,"Number of examinees who exhibited ±, +, or ++ reactivity, 1st","skin; 1 wt. %, line 2 of 3 (+)",0 number
same,"Number of examinees who exhibited ±, +, or ++ reactivity, 1st","skin; 1 wt. %, line 3 of 3 (++)",0 number
same,"Number of examinees who exhibited ±, +, or ++ reactivity, 2nd","skin; 1 wt. %, line 1 of 3 (±)",0 number
same,"Number of examinees who exhibited ±, +, or ++ reactivity, 2nd","skin; 1 wt. %, line 2 of 3 (+)",0 number
same,"Number of examinees who exhibited ±, +, or ++ reactivity, 2nd","skin; 1 wt. %, line 3 of 3 (++)",0 number
same,"Number of examinees who exhibited ±, +, or ++ reactivity, 3rd","skin; 1 wt. %, line 1 of 3 (±)",0 number
same,"Number of examinees who exhibited ±, +, or ++ reactivity, 3rd","skin; 1 wt. %, line 2 of 3 (+)",0 number
same,"Number of examinees who exhibited ±, +, or ++ reactivity, 3rd","skin; 1 wt. %, line 3 of 3 (++)",0 number
same,"Number of examinees who exhibited ±, +, or ++ reactivity, 4th","skin; 1 wt. %, line 1 of 3 (±)",0 number
same,"Number of examinees who exhibited ±, +, or ++ reactivity, 4th","skin; 1 wt. %, line 2 of 3 (+)",0 number
same,"Number of examinees who exhibited ±, +, or ++ reactivity, 4th","skin; 1 wt. %, line 3 of 3 (++)",0 number
